Results from paper PMC5444383 (Biochemistry, 2016).
Where two headings read alike, the source gives them in different places.

How the values were obtained:
[1] = biological target: T1, ethylene-forming enzyme (EFE) (Pseudomonas savastanoi, UniProt P32021); experiment: anaerobic UV-vis difference titration; type: binding
[2] = biological target: T1, ethylene-forming enzyme (EFE); experiment: anaerobic UV-vis difference titration; type: binding; remark: listed apart in the source
O=C(O)CCCC(=O)C(=O)O = experiment: purified protein; conditions: Fe(II) active-site Fe(II) (MLCT transition)

T1 sequence (P32021 whole entry): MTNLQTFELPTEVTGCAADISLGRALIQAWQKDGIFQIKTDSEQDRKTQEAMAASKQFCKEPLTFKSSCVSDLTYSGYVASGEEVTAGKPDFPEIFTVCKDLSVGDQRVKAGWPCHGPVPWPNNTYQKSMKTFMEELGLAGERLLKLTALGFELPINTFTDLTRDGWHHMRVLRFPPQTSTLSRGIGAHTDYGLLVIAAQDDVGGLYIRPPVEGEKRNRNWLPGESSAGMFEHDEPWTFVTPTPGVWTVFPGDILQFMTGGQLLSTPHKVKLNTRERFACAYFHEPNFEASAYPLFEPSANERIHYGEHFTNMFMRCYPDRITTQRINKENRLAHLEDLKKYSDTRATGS

With `O=C(O)CCC(=O)C(=O)O` [2OG, 2-oxoglutarate] the Kd [1] was 25 ± 7 µM.
`N=C(N)NCCC[C@H](N)C(=O)O` [L-Arg, L-arginine] showed a Kd [2] of 34 ± 25 µM.
Work on “ethylene-forming enzyme (EFE) (Pseudomonas savastanoi pv. phaseolicola)” yielded a Km (O=C(O)CCCC(=O)C(=O)O) of 31 ± 4 µM and a kcat (O=C(O)CCCC(=O)C(=O)O) of 0.00417 ± 0.000333 s⁻¹.
